Tests used:
[1] = Determination of lactone–zwitterion equilibrium constant KL–Z; assay type: physicochemical; conditions: 1:1 (v/v) dioxane–water
Procedure: (§1) Detailed descriptions of the materials and methods are provided in the supporting information. Multifunctional rhodamine–HaloTag ligands (13HTL–16HTL and 18HTL–20HTL) were synthesized using palladium-catalyzed cross-coupling reactions to install 3-carboxyazetidine moieties onto rhodamine scaffolds, followed by amide bond formation with biotin–PEG2–NH2, (S)-JQ1–PEG2–NH2, or (R)-JQ1–PEG2–NH2. Spectroscopic properties (λabs, λem, ε, and Φf) were determined in 10 mM HEPES, pH 7.3. The lactone–zwitterion equilibrium constants (KL–Z) were measured in 1:1 (v/v) dioxane–water mixtures. Octanol–water distribution coefficients (logD7.4) were determined by miniaturized shake-flask partitioning experiments using PBS (pH 7.4) and 1-octanol. Cell culture experiments employed HEK293T, U2OS, and Neuro2a cells transfected with HaloTag fusion constructs and labeled with ligands (100 nM to 1 μM, 0.5 to 2 h at 37 °C), followed by fluorescence microscopy using confocal or lattice light-sheet microscopy. Affinity purification studies utilized streptavidin magnetic beads to capture biotin-labeled HaloTag conjugates, with analysis by SDS-PAGE and in-gel fluorescence detection. […]
Reported values for extinction coefficient (ε) are averages of at least two […]
Determination of KL−Z. The lactone−zwitterion equilibrium constant (KL−Z) was calculated as described previously2-4 using equation 1: […]
where εdw is the extinction coefficient of the dyes in a 1:1 (v/v) dioxane:water solvent mixture containing 0.01% (v/v) triethylamine; this dioxane−water mixture was chosen to give a large range of KL−Z values,3 and the triethylamine additive ensures the rhodamines are in the net neutral form.
The εmax is the maximal extinction coefficient, measured in 0.1% (v/v) trifluoroacetic acid in 2,2,2-trifluoroethanol (TFE) or ethanol. […]

[2] = Spectroscopy of HaloTag ligands and HaloTag conjugates; assay type: physicochemical; conditions: 10 mM HEPES, pH 7.3
Procedure: as §1
HaloTag protein purification. The bacterial expression vector pRSET-A (Invitrogen) was used to recombinantly express HaloTag (HT7; Promega).1 The soluble 6×His-Tagged HaloTag protein was affinity purified by immobilized metal affinity chromatography (IMAC) on a 5 -mL Fast Flow HiTrap Sepharose 6 column (Cytiva) with a 0–200 mM imidazole elution gradient using an Avant Protein Purification System (ÄKTA). A280 peak fractions were pooled, concentrated by a spin concentrator, and dialyzed 3× into tris-buffered saline (TBS). The amino acid sequence of HaloTag (HT7) expressed from pRSET-A is noted below; the annotated DNA and amino acid sequences […]
Spectroscopy of HaloTag ligands and HaloTag conjugates. Compounds 13HTL–16HTL, 18HTL, and 19HTL were prepared as stock solutions in DMSO and diluted such that the final DMSO […]
All measurements were taken at ambient temperature (22
± 2 °C). Absorption spectra were recorded on a Cary Model 100 spectrometer (Agilent) using 1-cm path length 1.0-mL quartz microcuvettes from Starna Cells. Fluorescence spectra were recorded on a Cary Eclipse fluorometer (Varian) using 1-cm path length 3.5-mL quartz cuvettes (Starna Cells). As before,2-4 HaloTag protein was used as a 100 μM solution in 1× TBS. HaloTag ligands 13HTL–16HTL, 18HTL, and 19HTL (5 μM) were dissolved in 10 mM HEPES, pH 7.3, containing 0.1 mg/mL CHAPS. An aliquot of HaloTag protein (1.5 equiv) was added, and the resulting mixture was incubated until a consistent absorbance signal was observed (60–120 min).
To measure the fold-increase of absorbance upon HaloTag binding, a “no HaloTag” control experiment was performed where an equivalent volume of TBS blank was added in place of the protein. Reported values for extinction coefficient (ε) are averages of at least two measurements. […]
Quantum yield determination. All reported absolute fluorescence quantum yield values (Φf) were measured in our laboratory under identical conditions using a Quantaurus-QY spectrometer (model C11374, Hamamatsu). This instrument uses an integrating sphere to determine photons absorbed and emitted by a sample. Measurements were performed using dilute samples (absorbance < 0.1), and self-absorption corrections were performed using the instrument software.5 Reported values are averages of at least two measurements.
Determination of logD7.4. The log of distribution coefficients at pH 7.4 was determined in octanol–phosphate-buffered saline (PBS) using a miniaturized shake flask setup described previously.6, 7 Briefly, 150 mL each of octanol and PBS pH 7.4 were stirred vigorously for 12–16 h. The layers were allowed to stand for at least 24 h for phase separation. The separated layers were collected and served as PBS saturated with octanol (PBS*) and octanol saturated with PBS […]

C[Si]1(C)c2cc(N3CC(F)C3)ccc2C2(OC(=O)c3ccc(C(=O)NCCOCCOCCCCCCCl)cc32)c2ccc(N3CC(F)C3)cc21 [6HTL, JF635–HaloTag ligand, reference compound]
KL–Z [1]: 0.0048 | Φf [2]: 0.60 | ε [2]: ~ 400 M^−1cm^−1 | λabs [2]: 640 nm | λem [2]: 658 nm

O=C(CCCCC1SCC2NC(=O)NC21)NCCOCCOCCNC(=O)C1C[N+](=c2ccc3c(-c4cc(C(=O)NCCOCCOCCCCCCCl)ccc4C(=O)[O-])c4ccc(N5CCC5)cc4oc-3c2)C1 (stereo not shown) [13HTL, biotin–JF549–HaloTag ligand]
KL–Z [1]: 5.9 | Φf [2]: 0.90 | ε [2]: 92,000 M^−1cm^−1 | λabs [2]: 552 nm | λem [2]: 575 nm

CC1(C)C2=CC(=[N+]3CC(C(=O)NCCOCCOCCNC(=O)CCCC[C@@H]4SC[C@@H]5NC(=O)N[C@@H]54)C3)C=CC2=C(c2cc(C(=O)NCCOCCOCCCCCCCl)ccc2C(=O)[O-])c2ccc(N3CCC3)cc21 (stereo partly shown) [14HTL, biotin–JF608–HaloTag ligand]
KL–Z [1]: 0.17 | Φf [2]: 0.65 | ε [2]: 92,300 M^−1cm^−1 | λabs [2]: 610 nm | λem [2]: 634 nm

C[Si]1(C)C2=CC(=[N+]3CC(C(=O)NCCOCCOCCNC(=O)CCCC[C@@H]4SC[C@@H]5NC(=O)N[C@@H]54)C3)C=CC2=C(c2cc(C(=O)NCCOCCOCCCCCCCl)ccc2C(=O)[O-])c2ccc(N3CCC3)cc21 (stereo partly shown) [15HTL, biotin–JF646–HaloTag ligand]
KL–Z [1]: 0.0086 | Φf [2]: 0.56 | ε [2]: 34,000 M^−1cm^−1 | λabs [2]: 647 nm | λem [2]: 666 nm

C[Si]1(C)C2=CC(=[N+]3CC(F)(C(=O)NCCOCCOCCNC(=O)CCCC[C@@H]4SC[C@@H]5NC(=O)N[C@@H]54)C3)C=CC2=C(c2cc(C(=O)NCCOCCOCCCCCCCl)ccc2C(=O)[O-])c2ccc(N3CC(F)C3)cc21 (stereo partly shown) [16HTL, biotin–JF635–HaloTag ligand]
KL–Z [1]: 0.0032 | Φf [2]: 0.60 | ε [2]: 2,900 M^−1cm^−1 | λabs [2]: 636 nm | λem [2]: 655 nm
